Experimental data reported in ChEMBL document CHEMBL1949618, “Synthesis and properties of mRNA cap analogs containing imidodiphosphate moiety--fairly mimicking natural cap structure, yet resistant to enzymatic hydrolysis” (Bioorg Med Chem, 2012).
pIC50: −log10 of the molar value. Values belong to the compound of their own block, whether it stands above or below them. Activity calls are given as the source filed them. The calls are words filed in the database; no cut-off is given here.

Columns and labels:
[1] = biological target: Eukaryotic translation initiation factor 4E (Oryctolagus cuniculus) (UniProt P29338); assay: Inhibition of eIF4E-mediated mRNA translation in rabbit reticulocyte lysate assessed as translation efficiency after 60 mins by luciferase reporter gene assay relative to m7GpppG-capped mRNA
Chain of Eukaryotic translation initiation factor 4E (Oryctolagus cuniculus) (P29338 whole entry): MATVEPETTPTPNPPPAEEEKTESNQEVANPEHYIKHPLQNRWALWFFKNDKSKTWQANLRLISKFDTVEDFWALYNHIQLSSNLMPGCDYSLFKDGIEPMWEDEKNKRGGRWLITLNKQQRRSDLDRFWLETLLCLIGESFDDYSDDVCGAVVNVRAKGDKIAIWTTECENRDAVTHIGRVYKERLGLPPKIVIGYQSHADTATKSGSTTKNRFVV

[2] = Stability of the compound assessed as human recombinant DcpS -mediated hydrolysis after 2 hrs by HPLC; format: ADME
[3] = biological target: Eukaryotic translation initiation factor 4E (Homo sapiens) (UniProt P06730); assay: Binding affinity to recombinant eIF4E by fluorescence quenching titration method
Chain of Eukaryotic translation initiation factor 4E (Homo sapiens) (P06730 whole entry): as the sequence (P29338 whole entry) above, with P16T, A17T, D174E counted along it

[4] = biological target: T1, m7GpppX diphosphatase (Homo sapiens) (UniProt Q96C86)
T1 sequence (whole entry): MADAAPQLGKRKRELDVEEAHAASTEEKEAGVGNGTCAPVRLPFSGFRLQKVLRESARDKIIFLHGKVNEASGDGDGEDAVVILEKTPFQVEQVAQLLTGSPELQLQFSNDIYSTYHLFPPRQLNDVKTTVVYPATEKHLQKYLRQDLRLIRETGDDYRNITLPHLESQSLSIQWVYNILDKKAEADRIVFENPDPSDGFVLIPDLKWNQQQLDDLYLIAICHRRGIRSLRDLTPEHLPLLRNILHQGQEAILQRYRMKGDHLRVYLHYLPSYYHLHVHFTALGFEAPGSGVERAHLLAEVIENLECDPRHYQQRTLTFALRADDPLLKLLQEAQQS
Description: Binding affinity to human recombinant DcpS by fluorescence quenching titration method

[5] = organism: Homo sapiens; assay: Selectivity ratio of Ka for human recombinant DcpS to Ka for eIF4E
[6] = biological target: T2, Eukaryotic translation initiation factor 4E (Oryctolagus cuniculus, UniProt P29338); assay: Inhibition of eIF4E-mediated mRNA translation in rabbit reticulocyte lysate by luciferase reporter gene assay
T2 sequence (P29338 whole entry): as the sequence (P29338 whole entry) above

[7] = biological target: T2, Eukaryotic translation initiation factor 4E; assay: Inhibition of eIF4E-mediated mRNA translation in rabbit reticulocyte lysate pre-incubated for 60 mins prior to mRNA addition by luciferase reporter gene assay
[8] = Chemical stability of the compound in aqueous buffer at pH 2 assessed as decomposition at 5 mM after 24 hrs by RP-HPLC; format: physicochemical; conditions: read-out: Drug degradation
[9] = Chemical stability of the compound in aqueous buffer at pH 6 assessed as decomposition at 5 mM up to 2 hrs by RP-HPLC; format: physicochemical; conditions: pH 6, 2 h, 5000 µM
[10] = Chemical stability of the compound in aqueous buffer at pH 6 assessed as decomposition at 5 mM after 24 hrs by RP-HPLC; format: physicochemical; conditions: read-out: Drug degradation
[11] = test system: Nucleic Acid; assay: Capping efficiency in mRNA after 60 mins by gel electrophoresis in the presence of SP6 polymerase; format: nucleic-acid assay
[12] = Chemical stability of the compound in aqueous buffer at pH 8 assessed as decomposition at 5 mM up to 2 hrs by RP-HPLC; format: physicochemical; conditions: pH 8, 2 h, 5000 µM
[13] = Chemical stability of the compound in aqueous buffer at pH 8 assessed as decomposition at 5 mM after 24 hrs by RP-HPLC; format: physicochemical; conditions: read-out: Drug degradation
[14] = Chemical stability of the compound in aqueous buffer at pH 2 assessed as decomposition at 5 mM up to 2 hrs by RP-HPLC; format: physicochemical; conditions: pH 2, 2 h, 5000 µM
[15] = Stability of the compound at -20 degreeC after 12 months; format: physicochemical; conditions: 8766 h

SMILES: CO[C@@H]1[C@H](O)[C@@H](COP(=O)(O)OP(=O)([O-])OP(=O)(O)OP(=O)(O)OC[C@H]2O[C@@H](n3cnc4c(=O)[nH]c(N)nc43)[C@H](O)[C@@H]2O)O[C@H]1n1c[n+](C)c2c(O)nc(N)nc21
Drug degradation [2]: Active
fold change (FC) [1]: 1.56
Ka [3]: 99.8 µM⁻¹

SMILES: CO[C@@H]1[C@H](O)[C@@H](COP(=O)(O)OP(=O)([O-])OP(=O)(O)OC[C@H]2O[C@@H](n3cnc4c(=O)[nH]c(N)nc43)[C@H](O)[C@@H]2O)O[C@H]1n1c[n+](C)c2c(O)nc(N)nc21
Ka [3]: 10.8 µM⁻¹

SMILES: C[n+]1cn([C@@H]2O[C@H](COP(=O)(S)OP(=O)(O)OP(=O)([O-])OC[C@H]3O[C@@H](n4cnc5c(=O)[nH]c(N)nc54)[C@H](O)[C@@H]3O)[C@@H](O)[C@H]2O)c2nc(N)[nH]c(=O)c21 (some centres not stated)
Ka [4]: 146 µM⁻¹

SMILES: C[n+]1cn([C@@H]2O[C@H](COP(=O)(O)OP(=O)(O)OP(=O)(O)OP(=O)(O)OC[C@H]3O[C@@H](n4cnc5c(=O)[nH]c(N)nc54)[C@H](O)[C@@H]3O)[C@@H](O)[C@H]2O)c2nc(N)[n-]c(=O)c21
Drug degradation [2]: Active
pIC50 [6]: 5.30
pIC50 [7]: < 4.70

SMILES: C[n+]1cn([C@@H]2O[C@H](COP(=O)(O)OP(=O)(O)OP(=O)([O-])OP(=O)(O)OC[C@H]3O[C@@H](n4cnc5c(=O)[nH]c(N)nc54)[C@H](O)[C@@H]3O)[C@@H](O)[C@H]2O)c2nc(N)nc(O)c21
Ka [3]: 111 µM⁻¹

SMILES: CO[C@@H]1[C@H](O)[C@@H](COP(=O)(O)CP(=O)(O)OP(=O)([O-])OP(=O)(O)OC[C@H]2O[C@@H](n3cnc4c(=O)[nH]c(N)nc43)[C@H](O)[C@@H]2O)O[C@H]1n1c[n+](C)c2c(O)nc(N)nc21
fold change (FC) [1]: 1.5

SMILES: CO[C@@H]1[C@H](O)[C@@H](COP(=O)([O-])OP(=O)(O)CP(=O)(O)OC[C@H]2O[C@@H](n3cnc4c(=O)[nH]c(N)nc43)[C@H](O)[C@@H]2O)O[C@H]1n1c[n+](C)c2c(O)nc(N)nc21
fold change (FC) [1]: 1.25

SMILES: CO[C@@H]1[C@H](O)[C@@H](COP(=O)([O-])NP(=O)(O)OP(=O)(O)OP(=O)(O)OC[C@H]2O[C@@H](n3cnc4c(=O)[nH]c(N)nc43)[C@H](O)[C@@H]2O)O[C@H]1n1c[n+](C)c2c(=O)[nH]c(N)nc21.N.N.N
Drug degradation [2]: Not Active
fold change (FC) [1]: 0.73
Ka [3]: 125 µM⁻¹
degraded at 24 h, 5000 µM [8]: < 10%
Drug degradation [9]: Not Active
Ka [4]: 47.4 µM⁻¹
degraded at 24 h, 5000 µM [10]: < 10%
Activity [11]: Active
Drug degradation [12]: Not Active
Ratio [5]: 0.38
degraded at 24 h, 5000 µM [13]: < 10%
Drug degradation [14]: Not Active
Stability [15]: Stable

SMILES: C[n+]1cn([C@@H]2O[C@H](COP(=O)(O)OP(=O)([O-])OP(=O)(O)OC[C@H]3O[C@@H](n4cnc5c(=O)[nH]c(N)nc54)[C@H](O)[C@@H]3O)[C@@H](O)[C@H]2O)c2nc(N)[nH]c(=O)c21
pIC50 [7]: < 4.70

SMILES: C[n+]1cn([C@@H]2O[C@H](COP(=O)(O)CP(=O)(O)OP(=O)([O-])OC[C@H]3O[C@@H](n4cnc5c(=O)[nH]c(N)nc54)[C@H](O)[C@@H]3O)[C@@H](O)[C@H]2O)c2nc(N)nc(O)c21
Ka [3]: 6.3 µM⁻¹
Ratio [5]: 37.1

SMILES: CO[C@@H]1[C@H](O)[C@@H](COP(=O)([O-])NP(=O)([O-])OP(=O)([O-])OC[C@H]2O[C@@H](n3cnc4c(=O)[nH]c(N)nc43)[C@H](O)[C@@H]2O)O[C@H]1n1c[n+](C)c2c(=O)[nH]c(N)nc21.[Na+].[Na+]
Drug degradation [2]: Not Active
fold change (FC) [1]: 1.13
Ka [3]: 18.5 µM⁻¹
degraded at 24 h, 5000 µM [8]: < 10%
Drug degradation [9]: Not Active
Ka [4]: 33.6 µM⁻¹
degraded at 24 h, 5000 µM [10]: < 10%
Activity [11]: Active
Drug degradation [12]: Not Active
Ratio [5]: 1.8
degraded at 24 h, 5000 µM [13]: < 10%
Drug degradation [14]: Not Active
Stability [15]: Stable

The next lines start with the values.

fold change (FC) [1]: 1.56
SMILES: CO[C@@H]1[C@H](O)[C@@H](COP(=O)(O)OP(=O)([O-])OP(=O)(O)CP(=O)(O)OC[C@H]2O[C@@H](n3cnc4c(=O)[nH]c(N)nc43)[C@H](O)[C@@H]2O)O[C@H]1n1c[n+](C)c2c(O)nc(N)nc21

fold change (FC) [1]: 0.18
SMILES: Nc1nc2c(ncn2[C@@H]2O[C@H](COP(=O)(O)OP(=O)(O)OP(=O)(O)OC[C@H]3O[C@@H](n4cnc5c(N)ncnc54)[C@H](O)[C@@H]3O)[C@@H](O)[C@H]2O)c(=O)[nH]1

fold change (FC) [1]: 1
Ka [3]: 12.5 µM⁻¹
Ratio [5]: > 1
SMILES: C[n+]1cn([C@@H]2O[C@H](COP(=O)(O)OP(=O)([O-])OP(=O)(O)OC[C@H]3O[C@@H](n4cnc5c(=O)[nH]c(N)nc54)[C@H](O)[C@@H]3O)[C@@H](O)[C@H]2O)c2nc(N)nc(O)c21

fold change (FC) [1]: 1.1
SMILES: CO[C@@H]1[C@H](O)[C@@H](COP(=O)(O)CP(=O)(O)OP(=O)([O-])OC[C@H]2O[C@@H](n3cnc4c(=O)[nH]c(N)nc43)[C@H](O)[C@@H]2O)O[C@H]1n1c[n+](C)c2c(O)nc(N)nc21

Drug degradation [2]: Active
fold change (FC) [1]: 1.01
Ka [3]: 132 µM⁻¹
degraded at 24 h, 5000 µM [8]: < 10%
Drug degradation [9]: Not Active
degraded at 24 h, 5000 µM [10]: < 10%
Activity [11]: Active
Drug degradation [12]: Not Active
degraded at 24 h, 5000 µM [13]: < 10%
Drug degradation [14]: Not Active
Stability [15]: Stable
SMILES: CO[C@@H]1[C@H](O)[C@@H](COP(=O)([O-])OP(=O)([O-])OP(=O)([O-])NP(=O)([O-])OC[C@H]2O[C@@H](n3cnc4c(=O)[nH]c(N)nc43)[C@H](O)[C@@H]2O)O[C@H]1n1c[n+](C)c2c(=O)[nH]c(N)nc21.[Na+].[Na+].[Na+]

Drug degradation [2]: Active
pIC50 [6]: 5.45
Ka [3]: 141 µM⁻¹
degraded at 24 h, 5000 µM [8]: < 10%
Drug degradation [9]: Not Active
degraded at 24 h, 5000 µM [10]: < 10%
Drug degradation [12]: Not Active
pIC50 [7]: 4.80
degraded at 24 h, 5000 µM [13]: < 10%
Drug degradation [14]: Not Active
Stability [15]: Stable
SMILES: C[n+]1cn([C@@H]2O[C@H](COP(=O)([O-])OP(=O)(O)OP(=O)(O)NP(=O)(O)OC[C@H]3O[C@@H](n4cnc5c(=O)[nH]c(N)nc54)[C@H](O)[C@@H]3O)[C@@H](O)[C@H]2O)c2nc(N)[nH]c(=O)c21.N.N.N

Ka [3]: 51.8 µM⁻¹
Ratio [5]: 3.1
SMILES: C[n+]1cn([C@@H]2O[C@H](COP(=O)(O)CP(=O)(O)OP(=O)([O-])OP(=O)(O)OC[C@H]3O[C@@H](n4cnc5c(=O)[nH]c(N)nc54)[C@H](O)[C@@H]3O)[C@@H](O)[C@H]2O)c2nc(N)nc(O)c21

Drug degradation [2]: Not Active
pIC50 [6]: 5.40
Ka [3]: 14.6 µM⁻¹
degraded at 24 h, 5000 µM [8]: < 10%
Drug degradation [9]: Not Active
Ka [4]: 218 µM⁻¹
degraded at 24 h, 5000 µM [10]: < 10%
Drug degradation [12]: Not Active
pIC50 [7]: 5.43
Ratio [5]: 15
degraded at 24 h, 5000 µM [13]: < 10%
Drug degradation [14]: Not Active
Stability [15]: Stable
SMILES: C[n+]1cn([C@@H]2O[C@H](COP(=O)([O-])NP(=O)(O)OP(=O)(O)OC[C@H]3O[C@@H](n4cnc5c(=O)[nH]c(N)nc54)[C@H](O)[C@@H]3O)[C@@H](O)[C@H]2O)c2nc(N)[nH]c(=O)c21.N.N

Drug degradation [2]: Not Active
pIC50 [6]: 5.58
Ka [3]: 112 µM⁻¹
degraded at 24 h, 5000 µM [8]: < 10%
Drug degradation [9]: Not Active
Ka [4]: 155 µM⁻¹
degraded at 24 h, 5000 µM [10]: < 10%
Drug degradation [12]: Not Active
pIC50 [7]: 5.45
Ratio [5]: 1.4
degraded at 24 h, 5000 µM [13]: < 10%
Drug degradation [14]: Not Active
Stability [15]: Stable
SMILES: C[n+]1cn([C@@H]2O[C@H](COP(=O)([O-])NP(=O)([O-])OP(=O)([O-])OP(=O)([O-])OC[C@H]3O[C@@H](n4cnc5c(=O)[nH]c(N)nc54)[C@H](O)[C@@H]3O)[C@@H](O)[C@H]2O)c2nc(N)[nH]c(=O)c21.[Na+].[Na+].[Na+]

fold change (FC) [1]: 1.47
SMILES: CO[C@H]1[C@@H](O)[C@H](n2c[n+](C)c3c(O)nc(N)nc32)O[C@@H]1COP(=O)(O)OP(=O)([O-])OP(=O)(O)OC[C@H]1O[C@@H](n2cnc3c(=O)[nH]c(N)nc32)[C@H](O)[C@@H]1O
